Reference: paper PMC10796410 (Cancer Chemotherapy and Pharmacology, 2023)
Several values for one entry are separate records, joined by “and”; a condition that tells them apart may be missing. Equal entries are not always repeated. Where two headings read alike, the source gives them in different places.

How the values were obtained:
[1] = Plasma pharmacokinetics of metformin in rats after a single oral dose, alone or with olaparib (HPLC-UV, non-compartmental); format: in vivo, Wistar rats; details: for Cmax / k el: po; for Cmax / k el / Cl/F / ka / t0.5: rat plasma, n = 8, mean ± SD
Procedure: Adult male Wistar rats (weight 380–530 g) were used in the study. The animals were maintained under standard breeding conditions with a 12/12 h light–dark cycle (lights on at 06.00, lights off at 18.00) at constant room temperature (23 ± 2 °C), relative humidity of 55 ± 10% and given ad libitum access to food and water. The animals were allowed to acclimatize for a week before the beginning of the experiments. The rats were divided into three groups. […] The solution for oral metformin administration was prepared in saline at a single dose of 100 mg/kg [15]. Drugs were orally administered to rats by gavage between 7:00 a.m. and 8:00 a.m. Before administration (0 h) and at different time intervals after the administration, i.e., 0.085, 0.5, 1, 2, 4, 6, 8, 10, and 24 h [16], blood was collected from the tail vein of each rat into 1.5-ml heparinized Eppendorf (EP) tubes. The blood samples were centrifuged at 5000 rpm for 10 min, and the plasma was transferred to new centrifuge tubes and then stored at – 80 °C.
High-performance liquid chromatography (HPLC) with ultraviolet (UV) detection (HPLC Waters 2695 Separations Module with autosampler, Waters 2487 Dual Absorbance Detector) [17] after a liquid–liquid extraction with a mixture of 1-butanol:n-heptane (50:50, v/v) was applied to measure the concentrations of metformin in the rats’ plasma. An analytical Symmetry® C8 column (250 × 4.6 mm, 5.0 μm; Waters Corporation, Milford, MA, USA) and a mobile phase consisting of 0.1 M ammonium formate solution, pH 6.3 with an isocratic flow rate of 1.0 ml/min were used. The volume of each injection was 20 µl, and the retention times for metformin and internal standard (acetaminophen) were 3.5 and 11.2 min, respectively.
The maximum plasma concentration (Cmax) and the time to reach the Cmax (tmax) were obtained directly from the measured values. All of the above-mentioned parameters underwent statistical analysis.

[2] = test system: epithelial ovarian cancer cell lines; details: drugs given separately or co-administered; cited from earlier work
[3] = male, Wistar, rat, plasma, 100 mg/kg, IIMET: metformin 100 mg/kg b.w. oral single dose alone
[4] = male, Wistar, rat, plasma, 100 mg/kg, IMET+OLA: metformin 100 mg/kg b.w. + olaparib 100 mg/kg b.w. oral single dose
[5] = metformin, rats, with olaparib / alone
[6] = IIMET: metformin 100 mg/kg b.w. oral single dose alone
[7] = IMET+OLA: metformin 100 mg/kg b.w. + olaparib 100 mg/kg b.w. oral single dose
[8] = rats, co-administered with olaparib vs. metformin alone
[9] = rats, concomitant olaparib and metformin

For `CN(C)C(=N)N=C(N)N` [metformin, Metformin], the concentration at 0.083 h ([1]; male, Wistar, rat, plasma, oral, 100 mg/kg, t 0.083 h, IIMET (metformin alone), group mean, read-out: Cmet, S (group mean)) was 146 ng/mL, the concentration at 1 h ([1]; male, Wistar, rat, plasma, oral, 100 mg/kg, t 1 h, IIMET (metformin alone), group mean, read-out: Cmet, S (group mean)) was 397 ng/mL and the concentration at 2 h ([1]; male, Wistar, rat, plasma, oral, 100 mg/kg, t 2 h, IIMET (metformin alone), group mean, read-out: Cmet, S (group mean)) was 285 ng/mL. The concentration at 6 h ([1]; male, Wistar, rat, plasma, oral, 100 mg/kg, t 6 h, IIMET (metformin alone), group mean, read-out: Cmet, S (group mean)) was 156 ng/mL, the concentration at 8 h ([1]; male, Wistar, rat, plasma, oral, 100 mg/kg, t 8 h, IIMET (metformin alone), group mean, read-out: Cmet, S (group mean)) was 163 ng/mL and the concentration at 10 h ([1]; male, Wistar, rat, plasma, oral, 100 mg/kg, t 10 h, IIMET (metformin alone), group mean, read-out: Cmet, S (group mean)) was 133 ng/mL. For the same compound, the concentration at 24 h ([1]; male, Wistar, rat, plasma, oral, 100 mg/kg, t 24 h, IIMET (metformin alone), group mean, read-out: Cmet, S (group mean)) was 112 ng/mL, the concentration at 0.083 h ([1]; male, Wistar, rat, plasma, oral, t 0.083 h, IMET+OLA (metformin and olaparib), group mean, read-out: Cmet, S (group mean)) was 140 ng/mL and the concentration at 0.5 h ([1]; male, Wistar, rat, plasma, oral, t 0.5 h, IMET+OLA (metformin and olaparib), group mean, read-out: Cmet, S (group mean)) was 590 ng/mL. For the same compound, the concentration at 1 h ([1]; male, Wistar, rat, plasma, oral, t 1 h, IMET+OLA (metformin and olaparib), group mean, read-out: Cmet, S (group mean)) was 968 ng/mL, the concentration at 2 h ([1]; male, Wistar, rat, plasma, oral, t 2 h, IMET+OLA (metformin and olaparib), group mean, read-out: Cmet, S (group mean)) was 858 ng/mL and the concentration at 4 h ([1]; male, Wistar, rat, plasma, oral, t 4 h, IMET+OLA (metformin and olaparib), group mean, read-out: Cmet, S (group mean)) was 734 ng/mL. For the same compound, the concentration at 6 h ([1]; male, Wistar, rat, plasma, oral, t 6 h, IMET+OLA (metformin and olaparib), group mean, read-out: Cmet, S (group mean)) was 626 ng/mL, the concentration at 10 h ([1]; male, Wistar, rat, plasma, oral, t 10 h, IMET+OLA (metformin and olaparib), group mean, read-out: Cmet, S (group mean)) was 334 ng/mL and the concentration at 24 h ([1]; male, Wistar, rat, plasma, oral, t 24 h, IMET+OLA (metformin and olaparib), group mean, read-out: Cmet, S (group mean)) was 182 ng/mL. The Cmax [1, 3] was 450 ± 290 ng/mL, the k el [1, 3] was 8.89e-06 s⁻¹ and the Cmax [1, 4] was 1250 ± 800 ng/mL. The k el [1, 4] was 1.5e-05 s⁻¹, the “IMET+OLA/IIMET ratio for AUC0-t” value [1, 5] was 2.59 and the “IMET+OLA/IIMET ratio for AUC0→∞” value [1, 5] was 1.74. For the same compound, the “IMET+OLA/IIMET ratio for Cmax” value [1, 5] was 2.78, the Cl/F [1, 6] was 6.31 ± 1.48 l/h and 6.31 ± 1.48 (23.5) l/h and the ka [1, 6] was 0.41 ± 0.25 (62.4) h^−1. The t0.5 [1, 6] was 26.54 ± 14.52 (54.7) h, the Cl/F [1, 7] was 3.57 ± 1.26 l/h and 3.57 ± 1.26 (35.34) l/h and the ka [1, 7] was 0.59 ± 0.17 (29.7) h^−1. The t0.5 [1, 7] was 14.95 ± 6.04 (40.4) h, the “decrease of metformin Cl/F in the presence of olaparib” value [1, 8] was 43.4% and the “decrease of metformin Vd/F in the presence of olaparib” value [1, 8] was 65.1%. The “increase of metformin AUC0-t when co-administered with olaparib” value [1, 8] was 159.8%, the “increase of metformin AUC0-∞ when co-administered with olaparib” value [1, 8] was 74.1% and the “increase of metformin Cmax in the presence of olaparib” value [1, 8] was 177.8%. The “increase of metformin AUC on concomitant olaparib” value [1, 9] was 2.6 times, the “increase of metformin Cmax on concomitant olaparib” value [1, 9] was 2.8 times and the Cmet ([1]; t 0.083 h, IIMET (metformin alone), individual rats 17-24) was 0.139 µg/mL and 0.07 µg/mL and 0.274 µg/mL and 0.12 µg/mL and 0.149 µg/mL and 0.135 µg/mL and 0.136 µg/mL and 0.145 µg/mL. The Cmet ([1]; t 0.5 h, IIMET (metformin alone), individual rats 17-24) was 0.153 µg/mL and 0.15 µg/mL and 0.313 µg/mL and 0.434 µg/mL and 0.58 µg/mL and 0.179 µg/mL and 0.143 µg/mL and 0.118 µg/mL, the Cmet ([1]; t 0.5 h, IMET+OLA (metformin and olaparib), individual rats 9-16) was 0.305 µg/mL and 0.586 µg/mL and 0.526 µg/mL and 1.222 µg/mL and 0.663 µg/mL and 0.324 µg/mL and 0.506 µg/mL and the Cmet ([1]; t 1 h, IIMET (metformin alone), individual rats 17-24) was 0.174 µg/mL and 0.18 µg/mL and 1.014 µg/mL and 0.544 µg/mL and 0.499 µg/mL and 0.32 µg/mL and 0.159 µg/mL and 0.287 µg/mL. For the same compound, the Cmet ([1]; t 1 h, IMET+OLA (metformin and olaparib), individual rats 9-16) was 0.543 µg/mL and 0.726 µg/mL and 0.856 µg/mL and 1.358 µg/mL and 0.97 µg/mL and 2.359 µg/mL and 0.185 µg/mL and 0.747 µg/mL, the Cmet ([1]; t 2 h, IIMET (metformin alone), individual rats 17-24) was 0.23 µg/mL and 0.17 µg/mL and 0.418 µg/mL and 0.681 µg/mL and 0.209 µg/mL and 0.126 µg/mL and 0.165 µg/mL and 0.28 µg/mL and the Cmet ([1]; t 2 h, IMET+OLA (metformin and olaparib), individual rats 9-16) was 0.528 µg/mL and 0.55 µg/mL and 1.159 µg/mL and 2.443 µg/mL and 1.095 µg/mL and 0.402 µg/mL and 0.242 µg/mL and 0.446 µg/mL. For the same compound, the Cmet ([1]; t 4 h, IIMET (metformin alone), individual rats 17-24) was 0.113 µg/mL and 0.13 µg/mL and 0.27 µg/mL and 0.646 µg/mL and 0.162 µg/mL, the Cmet ([1]; t 4 h, IMET+OLA (metformin and olaparib), individual rats 9-16) was 0.578 µg/mL and 0.585 µg/mL and 1.642 µg/mL and 1.111 µg/mL and 0.694 µg/mL and 0.502 µg/mL and 0.361 µg/mL and 0.396 µg/mL and the Cmet ([1]; t 6 h, IMET+OLA (metformin and olaparib), individual rats 9-16) was 0.469 µg/mL and 0.284 µg/mL and 1.584 µg/mL and 1.082 µg/mL and 0.494 µg/mL and 0.321 µg/mL and 0.41 µg/mL and 0.368 µg/mL. For the same compound, the Cmet ([1]; t 8 h, IMET+OLA (metformin and olaparib), individual rats 9-16) was 0.57 µg/mL and 0.234 µg/mL and 1.165 µg/mL and 0.793 µg/mL and 0.485 µg/mL and 0.275 µg/mL and 0.247 µg/mL and 0.287 µg/mL, the Cmet ([1]; t 10 h, IMET+OLA (metformin and olaparib), individual rats 9-16) was 0.281 ug/ml and 0.155 ug/ml and 0.738 ug/ml and 0.33 ug/ml and 0.444 ug/ml and 0.268 ug/ml (2×) and 0.186 ug/ml and the Cmet ([1]; t 24 h, IMET+OLA (metformin and olaparib), individual rats 9-16) was 0.133 µg/mL and 0.13 µg/mL and 0.334 µg/mL and 0.18 µg/mL and 0.236 µg/mL and 0.141 µg/mL and 0.117 µg/mL and 0.187 µg/mL. The “percentage of late apoptotic cells” value [2] was 8.2%.
